Laboratory results reported in PubChem BioAssay AID248 (DTP/NCI, 2004).
Where “and” joins values, the source holds several entries; their conditions need not be identical. Equal values may be shown once. Inconclusive results and toxic doses are left out.

Tested on: L1210 leukemia ip in BDF1 mice, survival T/C
Assay: NCI In Vivo Anticancer Drug Screen. Data for tumor model L1210 Leukemia (intraperitoneal) in B6D2F1 (BDF1) mice
Settings: endpoint: mean survival time, higher = longer survival
Summary of the method: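 Tumor was transplanted into mice, which were then dosed with test compound or vehicle alone. Survival was recorded for each group, and the treated figure was expressed relative to the control figure.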

[1] = dose: 100.0 mg/kg/injection, schedule: Q01DX001 (ip), vehicle: saline
[2] = dose: 200.0 mg/kg/injection, schedule: Q01DX001 (ip), vehicle: saline
[3] = dose: 400.0 mg/kg/injection, schedule: Q01DX001 (ip), vehicle: saline
[4] = dose: 5.0 mg/kg/injection, schedule: Q01DX001 (ip), vehicle: saline
[5] = dose: 100.0 mg/kg/injection, schedule: Q04DX003 (ip), vehicle: saline with Tween-80
[6] = dose: 200.0 mg/kg/injection, schedule: Q04DX003 (ip), vehicle: saline with Tween-80
[7] = dose: 400.0 mg/kg/injection, schedule: Q04DX003 (ip), vehicle: saline with Tween-80
[8] = dose: 100.0 mg/kg/injection, schedule: Q04DX002 (ip), vehicle: Klucel (hydroxypropylcellulose) (HPC)
[9] = dose: 100.0 mg/kg/injection, schedule: Q01DX009 (ip), vehicle: saline
[10] = dose: 200.0 mg/kg/injection, schedule: Q01DX009 (ip), vehicle: saline
[11] = dose: 50.0 mg/kg/injection, schedule: Q01DX001 (ip), vehicle: carboxymethylcellulose (CMC)
[12] = dose: 100.0 mg/kg/injection, schedule: Q01DX001 (ip), vehicle: carboxymethylcellulose (CMC)
[13] = dose: 200.0 mg/kg/injection, schedule: Q01DX001 (ip), vehicle: carboxymethylcellulose (CMC)
[14] = dose: 400.0 mg/kg/injection, schedule: Q01DX001 (ip), vehicle: carboxymethylcellulose (CMC)
[15] = dose: 100.0 mg/kg/injection, schedule: Q04DX003 (ip), vehicle: Klucel (hydroxypropylcellulose) (HPC)
[16] = dose: 200.0 mg/kg/injection, schedule: Q04DX003 (ip), vehicle: Klucel (hydroxypropylcellulose) (HPC)
[17] = dose: 400.0 mg/kg/injection, schedule: Q04DX003 (ip), vehicle: Klucel (hydroxypropylcellulose) (HPC)
[18] = dose: 100.0 mg/kg/injection, schedule: Q01DX009 (ip), vehicle: saline with Tween-80
[19] = dose: 200.0 mg/kg/injection, schedule: Q01DX009 (ip), vehicle: saline with Tween-80
[20] = dose: 50.0 mg/kg/injection, schedule: Q01DX001 (ip), vehicle: saline

SMILES: Nc1ncnc2c1ncn2C1OC(COP(=O)(O)OP(=O)(O)OP(=O)(O)O)C(O)C1O (centres undefined)
- T/C (dose: 80.0 mg/kg/injection, schedule: Q01DX Z (ip), vehicle: saline): 87 % of control
- T/C (dose: 120.0 mg/kg/injection, schedule: Q01DX Z (ip), vehicle: saline): 87 % of control
- T/C (dose: 180.0 mg/kg/injection, schedule: Q01DX Z (ip), vehicle: saline): 95 % of control
- T/C (dose: 270.0 mg/kg/injection, schedule: Q01DX Z (ip), vehicle: saline): 98 % of control

SMILES: N#CC(C#N)=C1CCSc2ccc(Cl)cc21
- T/C [1]: 94 % of control
- T/C [2]: 97 % of control
- T/C [3]: 90 % of control

SMILES: O=C(NC(=S)Nc1ccc2ccccc2c1)c1ccc(Cl)cc1Cl
- T/C (dose: 100.0 mg/kg/injection, schedule: Q01DX001 (ip), vehicle: saline with Tween-80): 100 % of control
- T/C (dose: 100.0 mg/kg/injection, schedule: Q04DX002 (ip), vehicle: saline with Tween-80): 93 % of control and 90 % of control
- T/C (dose: 200.0 mg/kg/injection, schedule: Q01DX001 (ip), vehicle: saline with Tween-80): 101 % of control
- T/C (dose: 200.0 mg/kg/injection, schedule: Q04DX002 (ip), vehicle: saline with Tween-80): 93 % of control and 96 % of control
- T/C (dose: 400.0 mg/kg/injection, schedule: Q01DX001 (ip), vehicle: saline with Tween-80): 96 % of control
- T/C (dose: 400.0 mg/kg/injection, schedule: Q04DX002 (ip), vehicle: saline with Tween-80): 104 % of control and 86 % of control

SMILES: COc1ccc2c(c1)CN(C)CC2
- T/C (dose: 75.0 mg/kg/injection, schedule: Q01DX001 (ip), vehicle: other): 108 % of control

SMILES: O=S(=O)(O)CCS
- T/C [1]: 94 % of control
- T/C [2]: 105 % of control
- T/C [3]: 100 % of control

SMILES: NCCN=C(N)C(N)=NCCN
- T/C (dose: 100.0 mg/kg/injection, schedule: Q04DX002 (ip), vehicle: saline): 100 % of control
- T/C (dose: 200.0 mg/kg/injection, schedule: Q04DX002 (ip), vehicle: saline): 103 % of control
- T/C (dose: 400.0 mg/kg/injection, schedule: Q04DX002 (ip), vehicle: saline): 110 % of control

SMILES: C[N+](C)(C)CC1COCCO1 (centres undefined)
- T/C [4]: 105 % of control

SMILES: CC1CCC(C(C)C)C2(C1)NC(=O)N(CC(=O)O)C2=O (centres undefined)
- T/C [5]: 93 % of control
- T/C [6]: 100 % of control
- T/C [7]: 104 % of control

SMILES: CCCCNC(=O)Nc1ncn[nH]1
- T/C (dose: 75.0 mg/kg/injection, schedule: Q01DX001 (ip), vehicle: carboxymethylcellulose (CMC)): 103 % of control
- T/C (dose: 150.0 mg/kg/injection, schedule: Q01DX001 (ip), vehicle: carboxymethylcellulose (CMC)): 104 % of control
- T/C (dose: 300.0 mg/kg/injection, schedule: Q01DX001 (ip), vehicle: carboxymethylcellulose (CMC)): 97 % of control

SMILES: Cc1ccccc1OP(=S)(NN)Oc1ccccc1C
- T/C [8]: 93 % of control
- T/C (dose: 200.0 mg/kg/injection, schedule: Q04DX002 (ip), vehicle: Klucel (hydroxypropylcellulose) (HPC)): 100 % of control
- T/C (dose: 400.0 mg/kg/injection, schedule: Q04DX002 (ip), vehicle: Klucel (hydroxypropylcellulose) (HPC)): 100 % of control

SMILES: COC1CC2c3ccccc3C1C(C)=[N+]2C (centres undefined)
- T/C (dose: 50.0 mg/kg/injection, schedule: Q01DX009 (ip), vehicle: saline): 97 % of control
- T/C [9]: 101 % of control
- T/C (dose: 100.0 mg/kg/injection, schedule: Q04DX003 (ip), vehicle: saline): 102 % of control
- T/C [10]: 100 % of control
- T/C (dose: 200.0 mg/kg/injection, schedule: Q04DX003 (ip), vehicle: saline): 97 % of control
- T/C (dose: 400.0 mg/kg/injection, schedule: Q04DX003 (ip), vehicle: saline): 102 % of control

SMILES: Cc1ccc(S(=O)(=O)OCCN(CCOS(=O)(=O)c2ccc(C)cc2)c2cccc(Cl)c2)cc1
- T/C [11]: 98 % of control
- T/C [12]: 98 % of control
- T/C [13]: 109 % of control
- T/C [14]: 114 % of control

SMILES: S=C1SC2CCCCC2S1 (centres undefined)
- T/C (dose: 25.0 mg/kg/injection, schedule: Q04DX002 (ip), vehicle: Klucel (hydroxypropylcellulose) (HPC)): 100 % of control
- T/C (dose: 50.0 mg/kg/injection, schedule: Q04DX002 (ip), vehicle: Klucel (hydroxypropylcellulose) (HPC)): 106 % of control
- T/C [8]: 95 % of control
- T/C [15]: 103 % of control
- T/C [16]: 94 % of control
- T/C [17]: 103 % of control

SMILES: CNC(=O)Nc1ccc(C)c(Cl)c1
- T/C (dose: 100.0 mg/kg/injection, schedule: Q01DX009 (ip), vehicle: Klucel (hydroxypropylcellulose) (HPC)): 100 % of control
- T/C [15]: 102 % of control
- T/C (dose: 200.0 mg/kg/injection, schedule: Q01DX009 (ip), vehicle: Klucel (hydroxypropylcellulose) (HPC)): 90 % of control
- T/C [16]: 102 % of control
- T/C (dose: 400.0 mg/kg/injection, schedule: Q01DX009 (ip), vehicle: Klucel (hydroxypropylcellulose) (HPC)): 106 % of control
- T/C [17]: 104 % of control

SMILES: O=C1O/C(=C\c2ccccc2)c2ccccc21
- T/C [1]: 101 % of control
- T/C [18]: 94 % of control
- T/C [2]: 94 % of control
- T/C [19]: 97 % of control
- T/C [3]: 99 % of control
- T/C (dose: 400.0 mg/kg/injection, schedule: Q01DX009 (ip), vehicle: saline with Tween-80): 94 % of control

SMILES: Nc1ncnc2nc(Cc3ccccc3)[nH]c12
- T/C (dose: 100.0 mg/kg/injection, schedule: Q01DX001 (ip), vehicle: gum acacia): 95 % of control
- T/C (dose: 200.0 mg/kg/injection, schedule: Q01DX001 (ip), vehicle: gum acacia): 109 % of control

SMILES: COc1ccc(CCN(C)C2CC3CCC2(C)C3(C)C)cc1OC (centres undefined)
- T/C [1]: 93 % of control
- T/C [2]: 96 % of control
- T/C [3]: 100 % of control

SMILES: CCOCCS(=O)(=O)CCS(=O)(=O)CCOCC
- T/C [9]: 95 % of control
- T/C [10]: 103 % of control
- T/C (dose: 400.0 mg/kg/injection, schedule: Q01DX009 (ip), vehicle: saline): 108 % of control

SMILES: COC(=O)C(N)Cc1ccc(O)c(N(CCCl)CCCl)c1 (centres undefined)
- T/C (dose: 0.01 mg/kg/injection, schedule: Q01DX009 (ip), vehicle: saline): 116 % of control
- T/C (dose: 0.25 mg/kg/injection, schedule: Q01DX009 (ip), vehicle: saline): 205 % of control
- T/C (dose: 0.5 mg/kg/injection, schedule: Q01DX009 (ip), vehicle: saline): 204 % of control
- T/C (dose: 1.0 mg/kg/injection, schedule: Q01DX009 (ip), vehicle: saline): 194 % of control
- T/C (dose: 2.5 mg/kg/injection, schedule: Q01DX001 (ip), vehicle: saline): 116 % of control
- T/C [4]: 168 % of control
- T/C (dose: 10.0 mg/kg/injection, schedule: Q01DX001 (ip), vehicle: saline): 213 % of control

SMILES: COc1ccc(OC)c(C(O)C(C)NC(C)(C)C)c1 (centres undefined)
- T/C [20]: 106 % of control
- T/C [1]: 97 % of control

SMILES: CN(C)CCC(O)C(c1ccccc1)c1ccccc1 (centres undefined)
- T/C (dose: 75.0 mg/kg/injection, schedule: Q01DX001 (ip), vehicle: saline): 100 % of control
- T/C (dose: 150.0 mg/kg/injection, schedule: Q01DX001 (ip), vehicle: saline): 102 % of control

SMILES: CC(=O)NCc1cc2c3c(c1)CCCN3CCC2
- T/C (dose: 50.0 mg/kg/injection, schedule: Q01DX009 (ip), vehicle: saline with Tween-80): 97 % of control
- T/C [18]: 90 % of control
- T/C [5]: 90 % of control
- T/C [19]: 94 % of control
- T/C [6]: 100 % of control

SMILES: N#CC1C(=O)NC(=O)C(C#N)C12CCCC(C(F)(F)F)C2 (centres undefined)
- T/C [20]: 104 % of control
- T/C [1]: 98 % of control
- T/C [2]: 106 % of control
- T/C [3]: 98 % of control

SMILES: O=C(O)c1c[nH]c2cc(Cl)ccc2c1=O
- T/C (dose: 100.0 mg/kg/injection, schedule: Q01DX001 (ip), vehicle: Klucel (hydroxypropylcellulose) (HPC)): 90 % of control
- T/C [5]: 100 % of control
- T/C (dose: 200.0 mg/kg/injection, schedule: Q01DX001 (ip), vehicle: Klucel (hydroxypropylcellulose) (HPC)): 101 % of control
- T/C [6]: 101 % of control and 105 % of control
- T/C (dose: 400.0 mg/kg/injection, schedule: Q01DX001 (ip), vehicle: Klucel (hydroxypropylcellulose) (HPC)): 97 % of control
- T/C [7]: 100 % of control and 90 % of control

SMILES: NC(=O)c1ncn(C2CC(CO)C(O)C2O)c1N (centres undefined)
- T/C [1]: 100 % of control
- T/C [2]: 110 % of control
- T/C [3]: 104 % of control

SMILES: NC(=S)N/N=C1\CCCC\C1=N/NC(N)=S
- T/C [11]: 101 % of control
- T/C [12]: 109 % of control
- T/C [13]: 101 % of control
- T/C [14]: 104 % of control
